# According to US10301295B2, “Herbicidal compounds” (Syngenta Participations AG, priority 2014, dated 2019):
# Read-outs that look alike come from different tables or passages of the source.
# What was measured:
# Assay in all cases: Glasshouse assay for herbicidal activity, pre-/post-emergence (percentage phytotoxicity)
# Format in all cases: in vivo
# [1] = test system: Alopecurus myosuroides (ALOMY); settings: Alopecurus myosuroides, Rate 250 g/ha, 100%=total damage, 0%=no damage
# Method: (§1) Seeds of a variety of monocotyledonous and dicotyledonous test plants are sown in standard soil in pots. The plants are cultivated for one day (for pre-emergence) or for about 12 days (for post-emergence) under controlled conditions in a glasshouse (warm climate species at 24/18° C., cool climate species at 20/16° C., both at day/night; 16 hours light; 65% humidity). The test plants are then grown on, in a glasshouse (greenhouse) under controlled conditions (warm climate species at 24/18° C., cool climate species at 20/16° C., both at day/night; 16 hours light; 65% humidity) and are watered twice daily. 15 days after application of the test herbicide (15DAA) (for post-emergence), and 20 days after application of the test herbicide (20DAA) (for pre-emergence), the test plants are evaluated visually, and an assessed percentage phytotoxicity score is given for each herbicidal application on each plant species (with 100%=total damage to plant; 0%=no damage to plant). The plant species tested are as follows: Alopecurus myosuroides (ALOMY), Avena fatua (AVEFA), Lolium perenne (LOLPE), Echinochloa crus-galli (ECHCG).
# Avena fatua (AVEFA) = settings: Avena fatua, Rate 250 g/ha, 100%=total damage, 0%=no damage
# Method: as §1
# [2] = test system: Echinochloa crus-galli (ECHCG); settings: Echinochloa crus-galli, Rate 250 g/ha, 100%=total damage, 0%=no damage
# Method: as §1
# Lolium perenne (LOLPE) = settings: Lolium perenne, Rate 250 g/ha, 100%=total damage, 0%=no damage
# Method: as §1
# [3] = 360 h, post-emergence, visual assessment 15 DAA, read-out: Post-emergence herbicidal activity (percentage phytotoxicity), ALOMY POST
# [4] = 480 h, pre-emergence, visual assessment 20 DAA, read-out: Pre-emergence herbicidal activity (percentage phytotoxicity), ALOMY PRE
# [5] = post-emergence, 360 h, post-emergence, visual assessment 15 DAA, read-out: Post-emergence herbicidal activity (percentage phytotoxicity), AVEFA POST
# [6] = pre-emergence, 480 h, pre-emergence, visual assessment 20 DAA, read-out: Pre-emergence herbicidal activity (percentage phytotoxicity), AVEFA PRE
# [7] = post-emergence, 360 h, post-emergence, visual assessment 15 DAA, read-out: Post-emergence herbicidal activity (percentage phytotoxicity), ECHCG POST
# [8] = pre-emergence, 480 h, pre-emergence, visual assessment 20 DAA, read-out: Pre-emergence herbicidal activity (percentage phytotoxicity), ECHCG PRE
# [9] = post-emergence, 360 h, post-emergence, visual assessment 15 DAA, read-out: Post-emergence herbicidal activity (percentage phytotoxicity), LOLPE POST
# [10] = pre-emergence, 480 h, pre-emergence, visual assessment 20 DAA, read-out: Pre-emergence herbicidal activity (percentage phytotoxicity), LOLPE PRE
Compound,"pest or weed control at 250 g/ha [1, 3]","pest or weed control at 250 g/ha [1, 4]",pest or weed control at 250 g/ha (Avena fatua (AVEFA); [5]),pest or weed control at 250 g/ha (Avena fatua (AVEFA); [6]),"pest or weed control at 250 g/ha [2, 7]","pest or weed control at 250 g/ha [2, 8]",pest or weed control at 250 g/ha (Lolium perenne (LOLPE); [9]),pest or weed control at 250 g/ha (Lolium perenne (LOLPE); [10])
Cc1cc(-c2ncc(C#N)cn2)cc(C)c1C1C(=O)CC(CCNC(=O)C2=NOC(C)(C)C2)C1=O (centres unmarked) [Compound A114],90%,90%,100%,80%,100%,70%,100%,70%
"CNC(=O)NCCC1CC(=O)C(c2c(C)cc(C)cc2C)C1=O (centres unmarked) [Compound A94, 1-[2-[2,4-dioxo-3-(2,4,6-trimethylphenyl)cyclopentyl]ethyl]-3-methyl-urea]",60%,80%,90%,60%,90%,70%,80%,100%
Cc1cc(-c2ncc(Br)cn2)cc(C)c1C1C(=O)CC(CCNC(=O)C2=NOC(C)(C)C2)C1=O (centres unmarked) [Compound A116],100%,90%,100%,90%,100%,90%,100%,90%
Cc1cc(C)c(C2C(=O)CC(CCNc3ncc(F)cn3)C2=O)c(C)c1 (centres unmarked) [Compound A121],100%,100%,100%,100%,100%,100%,90%,100%
Cc1cc(-c2ncc(F)cn2)cc(C)c1C1C(=O)CC(CCNC(=O)C2=NOC(C)(C)C2)C1=O (centres unmarked) [Compound A110],100%,100%,100%,90%,100%,90%,90%,90%
CC#Cc1cc(C)c(C2C(=O)CC(CCNc3ccc(C(F)(F)F)cn3)C2=O)c(C)c1 (centres unmarked) [Compound A113],100%,90%,100%,70%,100%,90%,100%,90%
Cc1cc(C)c(C2C(=O)CC(CCNC(=O)Nc3ccncn3)C2=O)c(C)c1 (centres unmarked) [Compound A95],70%,80%,70%,20%,70%,70%,60%,70%
Cc1cc(-n2cc(Cl)cn2)cc(C)c1C1C(=O)CC(CCNc2ncc(C(F)(F)F)cc2F)C1=O (centres unmarked) [Compound A98],90%,40%,100%,70%,100%,90%,90%,90%
Cc1cc(C)c(C2C(=O)CC(CCNc3ncc(Cl)cn3)C2=O)c(C)c1 (centres unmarked) [Compound A125],90%,90%,90%,80%,100%,90%,100%,90%
Cc1cc(C)c(C2C(=O)C[C@H](CCNC(=O)C3=NOC(C)(C)C3)C2=O)c(C)c1 (some centres unmarked) [Compound A103],80%,80%,80%,50%,70%,60%,70%,80%
CC#Cc1cc(C)c(C2C(=O)CC(CCNC(=O)Nc3ccccn3)C2=O)c(C)c1 (centres unmarked) [Compound A92],90%,70%,100%,30%,100%,80%,100%,70%
Cc1cc(-c2ncc(F)cc2F)cc(C)c1C1C(=O)CC(CCNC(=O)C2=NOC(C)(C)C2)C1=O (centres unmarked) [Compound A111],100%,100%,100%,100%,100%,90%,40%,90%
Cc1cc(-c2ncc(Cl)cn2)cc(C)c1C1C(=O)CC(CCNC(=O)C2=NOC(C)(C)C2)C1=O (centres unmarked) [Compound A118],100%,100%,100%,90%,100%,90%,100%,90%
Cc1cc(OCC(F)(F)F)cc(C)c1C1C(=O)CC(CCNC(=O)C2=NOC(C)(C)C2)C1=O (centres unmarked) [Compound A115],100%,100%,100%,80%,100%,70%,90%,90%
CC#Cc1cc(C)c(C2C(=O)CC(CCNC(=O)C3=NOC(C)(C)C3)C2=O)c(C)c1 (centres unmarked) [Compound A108],100%,100%,100%,90%,100%,100%,100%,100%
Cc1cc(-n2cc(Cl)cn2)cc(C)c1C1C(=O)CC(CCNc2ccc(C(F)(F)F)cn2)C1=O (centres unmarked) [Compound A100],90%,60%,100%,50%,100%,90%,100%,70%
Cc1cc(-n2cc(Cl)cn2)cc(C)c1C1C(=O)CC(CCNc2ccc([N+](=O)[O-])cn2)C1=O (centres unmarked) [Compound A99],70%,0%,90%,0%,100%,0%,60%,0%
CC#Cc1cc(C)c(C2C(=O)CC(CCNc3ccc(C#N)cn3)C2=O)c(C)c1 (centres unmarked) [Compound A112],100%,100%,100%,90%,100%,100%,100%,90%
Cc1cc(-c2ccc(F)cc2)cc(C)c1C1C(=O)CC(CCNC(=O)C2=NOC(C)(C)C2)C1=O (centres unmarked) [Compound A109],100%,90%,100%,90%,100%,90%,100%,90%
